The results in this text go back to patent US20230338347A1, “New Use of Inhibitors of the Notch Signalling Pathway” (Cellestia Biotech AG, priority 2020, published 2023).

A short description of data set [1]: Phase I/IIA first-in-human dose escalation: safety and tolerability (adverse events, DLT). The conditions noted are these: in vivo. The text has this: […], open-label study investigating the safety, tolerability, pharmacokinetics (PK), pharmacodynamics (PD) and preliminary efficacy of the pan-NOTCH inhibitor 6-(4-Tert-Butylphenoxy)Pyridin-3-Amine in adult patients with locally advanced or metastatic solid tumours or hematologic malignancies.
6-(4-Tert-Butylphenoxy)Pyridin-3-Amine is orally administered and is a small molecule targeting the NOTCH signalling pathway with binding to the NOTCH-specific transcription complex located at the nucleus of cells. The study is divided into two parts with Part A being the dose escalation part of the study to determine the maximum tolerated dose (MTD) or recommended Phase II dose (RP2D). In Part A at least 3, up to 6 patients per dose will participate in the sequentially enrolled dose cohorts. In an additional cohort of approximately 45-50 patients, the safety of the previously determined RP2D will be confirmed (dose confirmatory cohort).
The dosing will be 15, 30, 60, 120, 170, 250, 400, or 600 mg of the 6-(4-Tert-Butylphenoxy)Pyridin-3-Amine monohydrochloride salt or higher per day or alternatively 20, 40, 60, 120, 170, 250, 400, or 600 mg of the 6-(4-Tert-Butylphenoxy)Pyridin-3-Amine monohydrochloride salt or higher per day. Dosing of 15, 30, 60, 120, 170, 250, 400, or 600 mg of the 6-(4-Tert-Butylphenoxy)Pyridin-3-Amine monohydrochloride salt corresponds to dosing of 13, 26, 52, 104, 148, 217, 348, or 522 mg of 6-(4-Tert-Butylphenoxy)Pyridin-3-Amine (free base). Dosing of 20, 40, 60, 120, 170, 250, 400, or 600 mg of the 6-(4-Tert-Butylphenoxy)Pyridin-3-Amine monohydrochloride salt corresponds to dosing of 17, 35, 52, 104, 148, 217, 348, or 522 mg of 6-(4-Tert-Butylphenoxy)Pyridin-3-Amine (free base). For this study, 6-(4-Tert-Butylphenoxy)Pyridin-3-Amine monohydrochloride salt was formulated into a capsule having a drug load of 5, 10, 20, 50 and 100 mg, respectively intended to be administered orally. • Patients will meet the following criteria:
The primary outcome measures for this study are: • Part A (Escalation): Dose limiting toxicities (DLT) • Part B (Expansion): Best overall response according to the respective tumour assessment criteria for the different cancer indications.
Fourty-one patients (median age 55 years, range 25 to 76 years) have been treated with 6-(4-Tert-Butylphenoxy)Pyridin-3-Amine in the dose escalation part of the clinical study at oral doses of 15 mg-600 mg QD (once a day). […] Cumulatively, a total of 352 AEs has occurred in 41 patients since study initiation, of which 132 AEs […] in 31 patients were considered related to the study drug. The treatment-related treatment-emergent AEs (TEAEs) most commonly reported (≥10% of patients) were nausea (24%), diarrhea (20%), dyspepsia (15%), fatigue (12%), and vision blurred (12%).

The subject of data set [2] is DTX-1 (Deltex E3 Ubiquitin Ligase 1). The data set can be described thus: Compassionate use T-ALL patient: DTX-1 gene expression by RTqPCR. It counts as in vivo, human. Particulars: at C2D15; time-dependent; target dose 500 mg once daily. As to the method:
DTX-1 is a positive regulator of NOTCH signalling pathway (C1D01_pre: Cycle 1 Day 1 predose; C1D01_1 h: Cycle 1 Day 1 1 hour post dose; C1D21_1 h: Cycle 1 Day 21 1 hour post dose; C2D15_1 h: Cycle 2 Day 15 1 hour post dose).
Administration of 6-(4-Tert-Butylphenoxy)Pyridin-3-Amine induced a potent time-dependent downregulation of DTX-1 (Deltex E3 Ubiquitin Ligase 1) up to 95% at C2D15, indicative of NOTCH pathway downregulation. DTX-1 is a positive regulator of NOTCH signalling pathway
Blood samples for PBMCs and cytokine analysis were collected using BD Vacutainer® Evacuated Blood Collection Tubes, and immediately centrifuged to separate the cell and plasma compartments for further analysis. Gene expression profiling was performed by standard RTqPCR. Cytokine analysis in the plasma compartment was performed with a standard commercially available ELISA method.
(In general: Quantitative PCR measures a nucleic acid by following its amplification.)

`CC(C)(C)c1ccc(Oc2ccc(N)cn2)cc1` [6-(4-Tert-Butylphenoxy)Pyridin-3-Amine]: in data set [1] (human), the “AEs considered related to the study drug, share of all AEs” value was 37.2%; the “number of AEs considered related to the study drug” value turned out to be 132; the “number of patients with AEs considered related to the study drug” value is listed as 31; the “number of serious adverse events (SAEs)” value is 12. In addition, in data set [1] (human), the “related AE of tachycardia” value was “one related AE of tachycardia Grade 1”; the “serious adverse events, share of all AEs” value is given as 3.4%; the “total number of AEs” value was 352; the “treatment-related TEAE diarrhea” value stood at 20%. For the same molecule, in data set [1] (human), the “treatment-related TEAE dyspepsia” value was 15%, the “treatment-related TEAE fatigue” value stood at 12%, the “treatment-related TEAE nausea” value was found to be 24% and the “treatment-related TEAE vision blurred” value was found to be 12%. In data set [1], the QTc prolongation result is on record as “no QTc prolongations”, the “SAEs considered related to study drug” value is given as “one SAE was considered related to study drug”, the cardiotoxicity signal result is recorded as “no signal of cardiotoxicity” and the “deaths due to drug-related AEs” value is given as “No deaths due to drug-related AEs”. Also, in data set [1], the “dose limiting toxicity (DLT)” value is recorded as “one dose limiting toxicity”, the “dose relation of AEs over the dose cohorts” value is given as “no evidence of dose relation” and the “skin phototoxicity or eye mydriasis events” value is “No events of skin phototoxicity or eye mydriasis”. For the same molecule, in data set [2], the “downregulation of DTX-1” value is recorded as “up to 95%”.
